# Measurements published in patent publication US20140275010A1, “QUATERNARY SALTS” (priority 2013, published 2014).
# Assays:
# [1] = test system: Panc 05.04 cells: Pancreatic cancer cells (Q699H and K700E mutations in SF3B1); assay: Cell viability assay (CellTiter-Glo), Panc 05.04 cells; format: cell-based; conditions: 72 hr; for Gl50 Panc 05.04: Panc 05.04 pancreatic cancer cells, SF3B1 Q699H and K700E, CellTiter-Glo; for Emax Panc 05.04: highest growth inhibition achieved in tested dose range
# Description: (§1) Cells are seeded in 96-well plate with 2000 cells/100 uL/well and incubated overnight. Spent media was removed and fresh media containing compound (100 uL/well) with appropriate 9 concentrations are added. Each compound was treated in duplicate or triplicate manner at each concentration. DMSO concentration was adjusted to be 0.1%. Another plate was dedicated as Tz plate which was added 0.1% DMSO in media (100 uL/well) followed by CellTiter-Glo® (Promega corp., 50 uL/well) for ATP measurement as a surrogate of cell viability. Values from this plate are used as Tz. Compound treated plates are incubated for 72 hr at 37 C. Then, CellTiter-Glo® (50 uL/well) was added and ATP level was measured. Values from compound treated wells are used as Ti and DMSO treated wells are used as C.
# (§2) Percentage growth inhibition was calculated as:
# (§3) [(Ti−Tz)/(C−Tz)]×100 for concentrations for which Ti>/=Tz
# (§4) [(Ti−Tz)/Tz]×100 for concentrations for which Ti<Tz.
# (§5) *[time zero, (Tz), control growth (C), and test growth in the presence of drug with dose (Ti)] Growth inhibition of 50% (GI50) was calculated from [(Ti−Tz)/(C−Tz)]×100=50, which was the drug concentration resulting in a 50% reduction in the net protein increase in control cells during the drug incubation. The LC50 (concentration of drug resulting in a 50% reduction in the measured value at the end of the drug treatment as compared to that at the beginning) indicating a net loss of cells following treatment was calculated from [(Ti−Tz)/Tz]×100=−50.
# (§6) Emax was defined as highest growth inhibition that particular compound achieved in tested dose range.
# [2] = test system: WiDr cells: Colon cancer cells (wildtype SF3B1); assay: Cell viability assay (CellTiter-Glo), WiDr cells; format: cell-based; conditions: 72 hr
# Description: as §1, §2, §3, §4, §5, §6
# [3] = test system: Ad2 pre-mRNA splicing in HeLa nuclear extract; assay: In vitro splicing (biochemical) assay; conditions: in vitro splicing of Ad2 pre-mRNA, 30° C., 90 min, read-out: Biochem IC50
# Description: In Vitro Splicing (Biochemical) Assay Protocol
# Biotin-labeled pre-mRNA of an adenovirus type 2 construct with a deletion of intervening sequence (Ad2)^1 was prepared by in vitro transcription. The Ad2 construct containing Exon 1 (41 nt), Intron (231 nt), and Exon 2 (72 nt) was generated by gene synthesis and cloned into the EcoRI and XbaI sites of pGEM-3Z (Promega) by Genewiz. The plasmid was then linearized by XbaI digestion and purified. In vitro transcription and purification of transcribed pre-mRNA were performed using the MEGAScript T7 kit (Invitrogen) and MEGAclear kit (Invitrogen), respectively, following the manufacturer instructions. The ratio of biotin-16-UTP (Roche) to cold UTP was 1:13 to incorporate approximately two biotin molecules per spliced Ad2 mRNA.
# In vitro splicing assay was performed at 30° C. in 25 μL reaction mixtures containing 95 μg HeLa nuclear extract (Promega), 47 nM Ad2 pre-mRNA, 25 U RNasin RNase inhibitor (Promega), 1×SP buffer (0.5 mM ATP, 20 mM creatine phosphate, 1.6 mM MgCl2), and compounds in DMSO (with 1% final concentration of DMSO). After 90 min of incubation, the reaction was stopped by addition of 18 μL of 5M NaCl, and the mixtures were incubated with 10 μL of M-280 streptavidin-coated magnetic beads (Invitrogen) for 30 min at room temperature to capture Ad2 pre- and spliced mRNA. The beads were washed twice with 100 uL buffer containing 10 mM Tris pH=7.5, 1 mM EDTA and 2M NaCl, and then incubated in RNA gel loading buffer containing 95% formamide at 70° C. for 10 min to elute the RNAs. Ad2 RNAs were resolved by 6% TBE-UREA gel, transferred to a nylon membrane, UV cross-linked, and probed with an IR-dye labeled streptavidin (LiCor) using LiCor detection. The amount of spliced RNA was quantified by measuring the band fluorescent intensity using LiCor software.
# [4] = test system: WiDr-R cells: Colon cancer cells (chemically-induced SF3B1 mutant which is resistant to E7107 (R1074H mutation)); assay: Cell viability assay (CellTiter-Glo), WiDr-R cells; format: cell-based; conditions: 72 hr
# Description: as §1, §2, §3, §4, §5, §6
# [5] = test system: reporter gene controlled by human VEGF promoter; conditions: read-out: IC50, inhibition of VEGF-promoted gene expression; cited from earlier work
# [6] = test system: U251 human glioma cells; conditions: U251 human glioma cells in vitro; read-out: IC50, inhibition of glioma cell proliferation; cited from earlier work
IC50 [3] [nM],Structure (SMILES),Gl50 Panc 05.04 [1] [nM],Emax Panc 05.04 [1] [%],Gl50 WiDr [2] [nM],Gl50 WiDr-R [4] [nM],IC50 [5] [nM],IC50 [6] [nM]
60,CC[C@H](O)[C@@H](C)[C@H]1O[C@@H]1C[C@H](C)/C=C/C=C(\C)[C@H]1OC(=O)C[C@H](O)CC[C@@](C)(O)[C@@H](OC(=O)N2CC[N+](C)(C(C)C)CC2)/C=C/[C@@H]1C.[I-] [Cpd. 3],16.2,−66,2.8,>100,,
60,CC[C@H](O)[C@@H](C)[C@H]1O[C@@H]1C[C@H](C)/C=C/C=C(\C)[C@H]1OC(=O)C[C@H](O)CC[C@@](C)(O)[C@@H](OC(=O)N2CCC[N+](C)(C(C)C)CC2)/C=C/[C@@H]1C.[I-] (some centres unmarked) [Cpd. 10],1.3,−65,1.9,>1000,,
,CCC(O)C(C)C1OC1CC(C)/C=C/C=C(\C)C1OC(=O)CC(O)CCC(C)(O)C(OC(C)=O)/C=C/C1C (centres unmarked) [Pladienolide B],,,,,1.8,3.5

Structure (SMILES),IC50 [3] [nM],Gl50 Panc 05.04 [1] [nM],Emax Panc 05.04 [1] [%],Gl50 WiDr [2] [nM],Gl50 WiDr-R [4] [nM],IC50 [5] [nM],IC50 [6] [nM]
CC[C@H](O)[C@@H](C)[C@H]1O[C@@H]1C[C@@](C)(O)/C=C/C=C(\C)[C@H]1OC(=O)C[C@H](O)CC[C@@](C)(O)[C@@H](OC(=O)N2CC[N+](C)(C3CCCCCC3)CC2)/C=C/[C@@H]1C.[I-] [Cpd. 17],< 100,607.8,−47,64.5,>1000,,
